# Patent publication US11026940B2, “Compositions for the mobilization, homing, expansion and differentiation of stem cells and methods of using the same” (Ampio Pharmaceuticals, Inc., priority 2013, dated 2021)
# Where “and” joins values, the source holds several entries; their conditions need not be identical. Equal values may be shown once.
# Columns and labels:
# Type in all cases: cell-based, human
# [1] = tested on: SOX9; test: Stem cell chondrogenesis, real time PCR gene expression: SOX9; settings: Day 14; for regulation, SOX9 / Mean regulation, SOX9: fold regulation vs saline; for regulation, SOX9 / ΔCp, SOX9 / 2^-ΔΔCp vs saline, SOX9 / ΔΔCp vs saline, SOX9: single replicate well; for Mean regulation, SOX9 / Mean ΔCp, SOX9: triplicate wells; for ΔCp, SOX9: human bone marrow MSC, chondrogenic medium + TGF beta 3; for ΔCp, SOX9 / 2^-ΔΔCp vs saline, SOX9 / ΔΔCp vs saline, SOX9 / Mean ΔCp, SOX9: vs Actin
# Method: The treatment protocol included expanding 5 HUXMA stem cells in 182 cm^2 flasks containing 40 […] to 80-90% confluence. Cells were trypsinized from the flasks and a 1.0×10^7 cell suspension of HUXMA stem cells was warmed in Cyagen Chondrogenic Differentiation medium. 20 μl of warmed cell suspension was spotted in the middle of each well of a 24-well tissue culture plate (200,000 cells per spot), and incubated at 37° C. and 5% CO2 for one hour. […] Medium exchanges were performed every 3-4 days by aspirating the medium from the wells and replacing with fresh chondrogenic medium, diluted stocks, and TGF beta 3, as described above. […] Medium from the wells was removed and saved for further protein analysis. Qiagen RNeasy plus lysis buffer (with 2mercaptoethanol) was added to each well and gently shaken for 10 minutes. The lysed cell suspensions from each well were transferred to Qiashredder columns and spun at 14,000 rpm for 2 minutes. RNA isolation proceeded by RNeasyTM plus manufacturer's protocol. RNA was eluted from the Qiagen columns using 25 μl RNase free water. cDNA synthesis and real time PCR was conducted as follows. First strand synthesis of cDNA from all samples was performed in 20 μl total volume using 10 μl isolated RNA. All cDNA reactions were then diluted with 30 μl nuclease free water. Real time PCR was then performed using 5 μl diluted cDNA, Roche Syber green master mix, and Qiagen RT^2 gPCRTM primer pairs in 20 μl total reaction volume.
# [2] = tested on: MMP13; test: Stem cell chondrogenesis, real time PCR gene expression: MMP13; settings: for regulation, MMP13 / Mean regulation, MMP13 / ΔCp, MMP13 / 2^-ΔΔCp vs saline, MMP13 / ΔΔCp vs saline, MMP13 / Mean ΔCp, MMP13: Day 7; for regulation, MMP13 / Mean regulation, MMP13: fold regulation vs saline; for regulation, MMP13 / ΔCp, MMP13 / 2^-ΔΔCp vs saline, MMP13 / ΔΔCp vs saline, MMP13: single replicate well; for Mean regulation, MMP13 / Mean ΔCp, MMP13: triplicate wells; for ΔCp, MMP13: human bone marrow MSC, chondrogenic medium + TGF beta 3; for ΔCp, MMP13 / 2^-ΔΔCp vs saline, MMP13 / ΔΔCp vs saline, MMP13 / Mean ΔCp, MMP13: vs Actin; for Mean regulation: vs saline; for Mean ΔCp / ΔCp: MMP13 vs GAPDH
# Method: (§1) • Stem Cells: Bone marrow derived human mesenchymal stem cells: Passage 5 Bone marrow derived human mesenchymal stem cells (HUXMA-01001, Cyagen Biosciences, Sunnyvale Calif.) • Mesenchymal Stem Cell Chondrogenic Differentiation medium (GUXMX-90041, Cyagen Biosciences, Sunnyvale Calif.) • TheraPEAK MSCGM chemically defined Stem cell medium (190632 Lonza) • 1 mM Dexamethasone acetate and mifepristone in absolute ethanol (Sigma) • Saline or 0.9% Sodium chloride for injection ZR Flush (Excelsior Medical, Neptune N.J.) • Sterile filtered 0.6 mM sodium caprylate in saline (sigma) • Sterile filtered 3 mM NAT in saline (sigma); To prepare, heat at 60° C. for 30 minutes then sonicate for 5 minutes. • Sterile filtered 10 mM DADKP in saline • 0.2 μM syringe filters • Hepes buffered saline, Trypsin/EDTA, Trypsin neutralizing solution (Lonza reagent pack) • 182 cm2 tissue culture flasks • pipettes and sterile tips • Tissue culture hood, humidified CO2 incubator, water or bead bath • 24 well tissue culture plates • Qiagen RNeasy plus spin columns (Qiagen 74134) • Qiagen RT2 qPCR primer pairs for Collagen 2A1, MMP13, TIMP1, Aggrecan, GAPDH, and Actin B • Roche Sybr green I master mix and Invitrogen Superscript VILO master mix. • Roche 480 lightcycler
# (§2) The following stock drug treatment solutions were prepared in saline for injection and warmed to 37° C. in bath: • 4 μM dexamethasone • 4 μM mifepristone • 3 mM NAT • 0.6 mM caprylate • 80 μM DADKP • Mix of 3 mM NAT, 0.6 mM caprylate, 80 μM DADKP (“Ampion” mix)
# (§3) Cyagen Chondrogenic Differentiation medium was prepared by manufacturer protocols but excluding dexamethasone and TGF beta 3 supplements, and warmed to 37° C. in bath.
# (§4) The treatment protocol included expanding 5 HUXMA stem cells in 182 cm^2 flasks containing 40 mls TheraPEAK™ MSCGM to 80-90% confluence. Cells were trypsinized from the flasks and a 1.0×10^7 cell suspension of HUXMA stem cells was warmed in Cyagen Chondrogenic Differentiation medium. 20 μl of warmed cell suspension was spotted in the middle of each well of a 24-well tissue culture plate (200,000 cells per spot), and incubated at 37° C. and 5% CO2 for one hour.
# (§5) The plates were removed from the incubator and an additional 720 μl chondrogenic medium was added to each well. 250 μl saline, or drug solutions were added to the appropriate wells in triplicate (bringing the final drug dilution to one-quarter of the stock drug treatment solution concentrations). 10 μl of TGF beta 3 solution (supplied by Cyagen) was added to each well, and the plates were returned to the incubator.
# (§6) RNA isolation and analysis was conducted for all plates as follows at days 7, 14, and 22 post treatment (with the described medium exchanges). […] Qiagen RNeasy plus lysis buffer (with 2mercaptoethanol) was added to each well and gently shaken for 10 minutes. The lysed cell suspensions from each well were transferred to Qiashredder columns and spun at 14,000 rpm for 2 minutes. RNA isolation proceeded by RNeasy™ plus manufacturer's protocol. RNA was eluted from the Qiagen columns using 25 μl RNase free water.
# (§7) cDNA synthesis and real time PCR was conducted as follows. First strand synthesis of cDNA from all samples was performed in 20 μl total volume using 10 μl isolated RNA. All cDNA reactions were then diluted with 30 μl nuclease free water. Real time PCR was then performed using 5 μl diluted cDNA, Roche Syber green master mix, and Qiagen RT^2 gPCR™ primer pairs in 20 μl total reaction volume. Relative gene expression was determined by delta deta Ct method.
# [3] = tested on: Aggrecan; test: Stem cell chondrogenesis, real time PCR gene expression: Aggrecan; settings: Day 22; for Mean ΔCp / ΔCp: Aggrecan vs Actin; for Cp Agg / Mean regulation: Aggrecan; for Mean regulation: vs saline
# Method: as §1, §2, §3, §4, §5, §6, §7
# [4] = tested on: TIMP1; test: Stem cell chondrogenesis, real time PCR gene expression: TIMP1; settings: Day 22; for Mean regulation: vs saline; for Mean ΔCp / ΔCp: TIMP1 vs Actin
# Method: as §1, §2, §3, §4, §5, §6, §7
# [5] = tested on: Collagen 2A1; test: Stem cell chondrogenesis, real time PCR gene expression: Collagen 2A1; settings: for Cp Coll / Mean regulation: Collagen 2A1; for Cp Coll / Mean regulation / Mean ΔCp / ΔCp: Day 22; for Mean regulation: vs saline; for Mean ΔCp / ΔCp: Collagen 2A1 vs GAPDH; for regulation, Collagen 2A1 / Mean regulation, Collagen 2A1: fold regulation vs saline; for regulation, Collagen 2A1 / ΔCp, Collagen 2A1 / 2^-ΔΔCp vs saline, Collagen 2A1 / ΔΔCp vs saline, Collagen 2A1: single replicate well; for Mean regulation, Collagen 2A1 / Mean ΔCp, Collagen 2A1: triplicate wells; for ΔCp, Collagen 2A1: human bone marrow MSC, chondrogenic medium + TGF beta 3; for ΔCp, Collagen 2A1 / 2^-ΔΔCp vs saline, Collagen 2A1 / ΔΔCp vs saline, Collagen 2A1 / Mean ΔCp, Collagen 2A1: vs Actin
# Method: as §1, §2, §3, §4, §5, §6, §7
compound,measurement,setting,value
"CCCCCCCC(=O)[O-].[Na+] [Caprylate, sodium caprylate]","regulation, SOX9",[1],1.16 and 1.99 and 2.28
same,"Mean regulation, SOX9",[1],1.81
same,"ΔCp, SOX9",[1],6.97 and 6.19 and 5.99
same,"2^-ΔΔCp vs saline, SOX9",[1],1.1567 and 1.9862 and 2.2815
same,"ΔΔCp vs saline, SOX9",[1],−0.21 and −0.99 and −1.19
same,"Mean ΔCp, SOX9",[1],6.383
same,"regulation, MMP13",[2],−2.63 and 1.03 and −3.06
same,"Mean regulation, MMP13",[2],−1.55
same,"ΔCp, MMP13",[2],6.03 and 4.59 and 6.25
same,"2^-ΔΔCp vs saline, MMP13",[2],0.3807 and 1.0329 and 0.3268
same,"ΔΔCp vs saline, MMP13",[2],1.393 and −0.05 and 1.613
same,"Mean ΔCp, MMP13",[2],5.623
same,Cp Coll,"[2]; MMP13, Day 22, Table 12",20.28 and 20.31 and 20.73
same,Cp Coll,"[2]; MMP13, Day 22, Table 16",20.28 and 20.31 and 20.73
same,Mean regulation,"[2]; MMP13, Day 22, Table 12",0.62
same,Mean regulation,"[2]; MMP13, Day 22, Table 16",0.62
same,Mean ΔCp,"[2]; Day 22, Table 12",2.733
same,ΔCp,"[2]; Day 22, Table 12",3.43 and 1.9 and 2.87
same,Mean ΔCp,"[2]; Day 22, Table 16",2.733
same,ΔCp,"[2]; Day 22, Table 16",3.43 and 1.9 and 2.87
same,Mean ΔCp,[3]; Table 12,7.42
same,ΔCp,[3]; Table 12,6.11 and 9.72 and 6.43
same,Mean ΔCp,[3]; Table 16,7.42
same,ΔCp,[3]; Table 16,6.11 and 9.72 and 6.43
same,Cp Agg,[3]; Table 12,21.64 and 25.43 and 21.95
same,Cp Agg,[3]; Table 16,21.64 and 25.43 and 21.95
same,Mean regulation,[3]; Table 12,10.81
same,Mean regulation,[3]; Table 16,10.81
same,Cp TIMP1,"[4]; TIMP1, Table 12",17.65 and 18.77 and 19.77
same,Cp TIMP1,"[4]; TIMP1, Table 16",17.65 and 18.77 and 19.77
same,Mean regulation,"[4]; TIMP1, Table 12",1.12
same,Mean ΔCp,[4]; Table 12,3.143
same,Mean ΔCp,[4]; Table 16,3.143
same,Cp Coll,[5]; Table 12,22.93 and 25.6 and 24.26
same,Cp Coll,[5]; Table 16,22.93 and 25.6 and 24.26
same,Mean regulation,[5]; Table 12,101.18
same,Mean regulation,[5]; Table 16,101.18
same,Mean ΔCp,[5]; Table 12,6.557
same,ΔCp,[5]; Table 12,6.08 and 7.19 and 6.4
same,Mean ΔCp,[5]; Table 16,6.557
same,ΔCp,[5]; Table 16,6.08 and 7.19 and 6.4
same,"regulation, Collagen 2A1",[5]; Day 7,1.63 and −1.05 and −1.11
same,"Mean regulation, Collagen 2A1",[5]; Day 7,−0.18
same,"ΔCp, Collagen 2A1",[5]; Day 7,6.03 and 6.81 and 6.88
same,"2^-ΔΔCp vs saline, Collagen 2A1",[5]; Day 7,1.6283 and 0.9482 and 0.9033
same,"ΔΔCp vs saline, Collagen 2A1",[5]; Day 7,−0.7 and 0.077 and 0.147
same,"Mean ΔCp, Collagen 2A1",[5]; Day 7,6.573
same,"regulation, Collagen 2A1",[5]; Day 14,7.19 and 6.95 and 4.28
same,"Mean regulation, Collagen 2A1",[5]; Day 14,6.14
same,"ΔCp, Collagen 2A1",[5]; Day 14,8.21 and 8.26 and 8.96
same,"2^-ΔΔCp vs saline, Collagen 2A1",[5]; Day 14,7.1934 and 6.9483 and 4.2772
same,"ΔΔCp vs saline, Collagen 2A1",[5]; Day 14,−2.85 and −2.8 and −2.1
same,"Mean ΔCp, Collagen 2A1",[5]; Day 14,8.477
"CC#C[C@]1(O)CC[C@H]2[C@@H]3CCC4=CC(=O)CCC4=C3[C@@H](c3ccc(N(C)C)cc3)C[C@@]21C [Mifepristone, mifepristone]","regulation, SOX9",[1],1.24 and 1.17 and 1.16
same,"Mean regulation, SOX9",[1],1.19
same,"ΔCp, SOX9",[1],6.87 and 6.95 and 6.96
same,"2^-ΔΔCp vs saline, SOX9",[1],1.2397 and 1.1728 and 1.1647
same,"ΔΔCp vs saline, SOX9",[1],−0.31 and −0.23 and −0.22
same,"Mean ΔCp, SOX9",[1],6.927
same,"regulation, MMP13",[2],−1.49 and −1.34
same,"Mean regulation, MMP13",[2],−2.47
same,"ΔCp, MMP13",[2],5.21 and 6.83 and 5.06
same,"2^-ΔΔCp vs saline, MMP13",[2],0.6721 and 0.2186 and 0.7457
same,"ΔΔCp vs saline, MMP13",[2],0.573 and 2.193 and 0.423
same,"Mean ΔCp, MMP13",[2],5.7
same,"Cp, MMP13","[2]; MMP13, Day 22, Table 12",20.98 and 21.32 and 21.37
same,ΔΔCp vs saline,"[2]; MMP13, Day 22, Table 12",0.517 and 0.867 and 0.537
same,2^-ΔΔCp vs saline,"[2]; MMP13, Day 22, Table 16",0.699 and 0.5484 and 0.6894
same,"Cp, MMP13","[2]; MMP13, Day 22, Table 16",20.98 and 21.32 and 21.37
same,ΔΔCp vs saline,"[2]; MMP13, Day 22, Table 16",0.517 and 0.867 and 0.537
same,Mean regulation,"[2]; MMP13, Day 22, Table 12",−1.57
same,Mean regulation,"[2]; MMP13, Day 22, Table 16",−1.57
same,Mean ΔCp,"[2]; Day 22, Table 12",3.633
same,ΔCp,"[2]; Day 22, Table 12",3.51 and 3.86 and 3.53
same,Mean ΔCp,"[2]; Day 22, Table 16",3.633
same,ΔCp,"[2]; Day 22, Table 16",3.51 and 3.86 and 3.53
same,Mean ΔCp,[3]; Table 12,9.247
same,ΔCp,[3]; Table 12,10.29 and 8.98 and 8.47
same,Mean ΔCp,[3]; Table 16,9.247
same,ΔCp,[3]; Table 16,10.29 and 8.98 and 8.47
same,Cp Agg,[3]; Table 12,25.97 and 24.4 and 23.94
same,Cp Agg,[3]; Table 16,25.97 and 24.4 and 23.94
same,Mean regulation,[3]; Table 12,1.55
same,Mean regulation,[3]; Table 16,1.55
same,Cp TIMP1,"[4]; TIMP1, Table 12",19.69 and 19.8 and 19.76
same,2-^ΔΔCp vs saline,"[4]; TIMP1, Table 16",0.6958 and 0.8448 and 0.6537
same,Cp TIMP1,"[4]; TIMP1, Table 16",19.76 and 19.69 and 19.8
same,Mean regulation,"[4]; TIMP1, Table 12",−1.38
same,Mean ΔCp,[4]; Table 12,4.227
same,ΔCp,[4]; Table 12,4.01 and 4.38 and 4.29
same,Mean ΔCp,[4]; Table 16,4.227
same,ΔCp,[4]; Table 16,4.29 and 4.01 and 4.38
same,Cp Coll,[5]; Table 12,25.99 and 27.6 and 26.84
same,Cp Coll,[5]; Table 16,25.99 and 27.6 and 26.84
same,Mean regulation,[5]; Table 12,16.82
same,Mean regulation,[5]; Table 16,16.82
same,Mean ΔCp,[5]; Table 12,9.22
same,ΔCp,[5]; Table 12,8.52 and 10.14 and 9
same,Mean ΔCp,[5]; Table 16,9.22
same,ΔCp,[5]; Table 16,8.52 and 10.14 and 9
same,"regulation, Collagen 2A1",[5]; Day 7,−1.12 and −3.11 and −1.23
same,"Mean regulation, Collagen 2A1",[5]; Day 7,−1.82
same,"ΔCp, Collagen 2A1",[5]; Day 7,6.9 and 8.37 and 7.03
same,"2^-ΔΔCp vs saline, Collagen 2A1",[5]; Day 7,0.8909 and 0.3216 and 0.8141
same,"ΔΔCp vs saline, Collagen 2A1",[5]; Day 7,0.167 and 1.637 and 0.297
same,"Mean ΔCp, Collagen 2A1",[5]; Day 7,7.433
same,"regulation, Collagen 2A1",[5]; Day 14,1.21 and 1.07 and 1.57
same,"Mean regulation, Collagen 2A1",[5]; Day 14,1.28
same,"ΔCp, Collagen 2A1",[5]; Day 14,10.78 and 10.96 and 10.41
same,"2^-ΔΔCp vs saline, Collagen 2A1",[5]; Day 14,1.2114 and 1.0693 and 1.5655
same,"ΔΔCp vs saline, Collagen 2A1",[5]; Day 14,−0.28 and −0.1 and −0.65
same,"Mean ΔCp, Collagen 2A1",[5]; Day 14,10.72
